Patent publication US20110306636A1, “OXAZOLE PYRIDINE DERIVATIVES USEFUL AS S1P1 RECEPTOR AGONISTS” (Merck Serono SA, priority 2009, published 2011)
Counter-ions that a name gives are not always drawn. Like-named read-outs stand apart in the source and are kept apart here.

Legend:
S1P1 [1] = molecular target: T1, S1P1 (Homo sapiens, UniProt P21453); assay: 35S-GTPγS binding assay, S1P1 membranes; assay type: biochemical; conditions: membranes from CHO cells expressing S1P1; read-out: S1P1/GTPG EC50
Description: (§1) Membranes Preparation: Membranes were prepared from CHO cells expressing S1P1 or S1P3 for use in ligand and 35S-GTPγS binding studies. Cells were suspended in 50 mM TRIS, pH 7.4, 2 mM EDTA, 250 mM Sucrose (buffer A) and 1× Complete protease inhibitor cocktail (Roche), and disrupted at 4° C. by N2 decompression using a cell disruption bomb (Parr Instrument). Following centrifugation at 1000 RPM for 10 min at 4° C., the supernatant was diluted (2×) in buffer A and centrifuged again at 19000 RPM for 75 min at 4° C. The pellet was then suspended in 10 mM HEPES, pH 7.4, 1 mM EDTA, 250 mM Sucrose (Buffer B), and 1× Complete EDTA-free protease inhibitor cocktail and homogenized using a potter. Membranes were flash frozen in liquid N2 and stored at −80° C.
(§2) Measurements of 35S-GTPγS Binding: Membranes (1 to 10 μg protein) prepared as described above, were incubated in 96-well Scintiplates (PerkinElmer) with test compounds diluted in DMSO, in 140 μl of 20 mM HEPES, pH 7.4, 10 mM MgCl2, 2 μg/well Saponin, 0.2% fatty acid free BSA (Assay buffer), 125 mM NaCl and 1.5 μM GDP. The assay was initiated with the addition of 60 μl of 1.5 nM [35S]-GTPγS (1100 Ci/mmol; GE Healthcare) in assay buffer. After 60 min incubation at 30° C. on a shaker, plates were centrifuged for 10 min at 2000 RPM. Supernatant was discarded and membrane bound radioactivity was measured on a PerkinElmer 1450 MicroBeta counter. Triplicate samples were averaged and expressed as % response relative to S1P activation in absence of compound (n=2).
The “potency” or the “activity” of the compounds is determined by the EC50 values as evaluated in the above described 35S-GTPγS binding assay.

S1P3 [2] = molecular target: T2, S1P3 (Homo sapiens, UniProt Q99500); assay: 35S-GTPγS binding assay, S1P3 membranes; assay type: biochemical; conditions: membranes from CHO cells expressing S1P3; read-out: S1P3/GTPG EC50
Description: as §1, §2

S1P1 [3] = molecular target: T1, S1P1; assay: Receptor binding assay, [33P]sphingosine 1-phosphate competition, S1P1
Summary of the method: (§3)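 SPA competition binding on CHO-cell membranes with 30 pM (S1P1) or 15 pM (S1P3) [33P]S1P in 50 mM HEPES pH 7.5, 5 mM MgCl2, 100 mM NaCl, 0.4% fatty acid-free BSA, 60 min at RT. Percent inhibition normalised to total binding and to non-specific binding (1000-fold unlabelled S1P), triplicates averaged.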

S1P3 [4] = molecular target: T2, S1P3; assay: Receptor binding assay, [33P]sphingosine 1-phosphate competition, S1P3
Summary of the method: as §3

[5] = molecular target: T3, human S1P1 Receptor fused to the green fluorescent protein (EGFP) (Homo sapiens, UniProt P21453); assay: Internalization of S1P1 in S1P1-U2OS cells by cell imaging analysis; assay type: cell-based; conditions: 1 hour incubation, 384-well
T3 construct: host or cells: U2OS (human bone osteosarcoma epithelial cells), CMV promoter, geneticin selection
Summary of the method: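 Human U2OS osteosarcoma cells stably expressed human S1P1-EGFP. After 2 h serum starvation in 0.1% fatty-acid-free BSA medium, cells were treated with compounds for 1 h at 37 °C. Cells were then fixed and Hoechst-stained, and internalization was imaged as spots (receptor) per nucleus.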

[6] = 96 well-plate, read-out: S1P1 binding IC50 (M) (96 well-plate)
[7] = 96 well-plate, read-out: S1P3 binding IC50 (M) (96 well-plate)
[8] = 384 well-plate, read-out: S1P3 binding IC50 (M) (384 well-plate)
[9] = 384 well-plate, read-out: S1P1 binding IC50 (M) (384 well-plate)

T3 sequence (P21453 with tags, fused parts or gaps): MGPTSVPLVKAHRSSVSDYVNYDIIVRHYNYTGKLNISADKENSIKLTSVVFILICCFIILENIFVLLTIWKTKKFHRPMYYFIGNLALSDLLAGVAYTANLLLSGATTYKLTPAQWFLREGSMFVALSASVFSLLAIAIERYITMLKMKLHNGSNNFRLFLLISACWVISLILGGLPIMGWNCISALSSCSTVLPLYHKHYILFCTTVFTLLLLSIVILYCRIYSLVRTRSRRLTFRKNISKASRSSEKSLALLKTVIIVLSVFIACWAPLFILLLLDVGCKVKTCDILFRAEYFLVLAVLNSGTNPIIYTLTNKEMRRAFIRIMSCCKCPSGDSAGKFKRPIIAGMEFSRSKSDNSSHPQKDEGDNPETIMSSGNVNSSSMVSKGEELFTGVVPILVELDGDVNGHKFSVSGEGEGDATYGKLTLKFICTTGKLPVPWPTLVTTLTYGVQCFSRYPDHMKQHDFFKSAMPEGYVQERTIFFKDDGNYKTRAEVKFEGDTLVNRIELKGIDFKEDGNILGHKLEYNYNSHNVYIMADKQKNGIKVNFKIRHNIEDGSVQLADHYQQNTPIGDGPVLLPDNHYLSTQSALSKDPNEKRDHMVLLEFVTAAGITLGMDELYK
T1 sequence (P21453 whole entry, species assumed): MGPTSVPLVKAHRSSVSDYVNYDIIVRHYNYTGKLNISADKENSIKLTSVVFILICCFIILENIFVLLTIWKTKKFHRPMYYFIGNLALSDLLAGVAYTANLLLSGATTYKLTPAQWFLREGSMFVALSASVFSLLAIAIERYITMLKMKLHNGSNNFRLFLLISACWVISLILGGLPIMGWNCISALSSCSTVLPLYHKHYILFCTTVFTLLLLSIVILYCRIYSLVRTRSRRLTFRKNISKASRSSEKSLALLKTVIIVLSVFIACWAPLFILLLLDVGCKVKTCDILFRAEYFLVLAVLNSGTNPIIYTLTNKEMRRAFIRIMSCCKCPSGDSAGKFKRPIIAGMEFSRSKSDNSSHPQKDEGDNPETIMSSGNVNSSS
T2 sequence (Q99500 whole entry, species assumed): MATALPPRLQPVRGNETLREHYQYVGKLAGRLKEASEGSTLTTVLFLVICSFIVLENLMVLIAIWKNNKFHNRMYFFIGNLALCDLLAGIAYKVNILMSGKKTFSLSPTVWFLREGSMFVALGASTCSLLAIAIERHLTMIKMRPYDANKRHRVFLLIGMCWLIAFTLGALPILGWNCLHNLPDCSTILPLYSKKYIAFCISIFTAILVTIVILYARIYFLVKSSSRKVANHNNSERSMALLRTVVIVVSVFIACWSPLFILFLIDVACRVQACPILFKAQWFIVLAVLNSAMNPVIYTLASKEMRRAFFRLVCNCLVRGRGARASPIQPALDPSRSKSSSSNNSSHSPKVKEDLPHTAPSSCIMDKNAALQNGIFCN

| SMILES | EC50 (S1P1 [1]) [nM] | EC50 (S1P3 [2]) [nM] | IC50 (S1P1 [3]; [6]) [M] | IC50 (S1P3 [4]; [7]) [M] | IC50 (S1P3 [4]; [8]) [M] | EC50 [5] [nM] | IC50 (S1P1 [3]; [9]) [M] | melting point [°C] |
| --- | --- | --- | --- | --- | --- | --- | --- | --- |
| COCc1cc(-c2nc(-c3ccc(NCCC(=O)O)nc3)no2)ccc1-c1ccccc1C [Example 2, N-(5-{5-[2-(methoxymethyl)-2′-methylbiphenyl-4-yl]-1,2,4-oxadiazol-3-yl}pyridin-2-yl)-beta-alanine, hydrochloride salt] | 21.1 | 1890 | 4.83e-09 |  |  |  |  |  |
| COCc1cc(-c2nc(-c3ccc(N)nc3)no2)ccc1-c1ccccc1C [Example 4, 5-{5-[2-(methoxymethyl)-2′-methylbiphenyl-4-yl]-1,2,4-oxadiazol-3-yl}pyridin-2-amine, hydrochloride salt] | 4.11 | 2690 | 1.75e-09 | 6.07e-06 | 7.85e-06 | 32 | 3.2e-08 |  |
| COCc1cc(-c2nc(-c3ccnc(NCCC(=O)O)c3)no2)ccc1-c1ccccc1C [Example 7, N-(4-{5-[2-(methoxymethyl)-2′-methylbiphenyl-4-yl]-1,2,4-oxadiazol-3-yl}pyridin-2-yl)-beta-alanine, hydrochloride salt] | 5.12 | 118 | 9.09e-09 |  |  |  |  |  |
| COCc1cc(-c2nc(-c3ccc(N)nc3)no2)ccc1N1CCCCC1C (stereo not shown) [Example 9, 5-{5-[3-(methoxymethyl)-4-(2-methylpiperidin-1-yl)phenyl]-1,2,4-oxadiazol-3-yl}pyridin-2-amine] | 1.77 | 2620 | 4.29e-09 |  |  |  |  |  |
| COCc1cc(-c2nc(-c3ccnc(NCC(=O)O)c3)no2)ccc1-c1ccccc1C [Example 11, N-(4-{5-[2-(methoxymethyl)-2′-methylbiphenyl-4-yl]-1,2,4-oxadiazol-3-yl}pyridin-2-yl)glycine, hydrochloride salt] | 22.2 |  |  |  | 2.97e-06 | 244 | 6.42e-08 |  |
| COCc1cc(-c2nc(-c3cnc(N)c(Cl)c3)no2)ccc1-c1ccccc1C [Example 14, 3-chloro-5-{5-[2-(methoxymethyl)-2′-methylbiphenyl-4-yl]-1,2,4-oxadiazol-3-yl}pyridin-2-amine] | 5.87 | 1460 | 1.89e-08 | 1.65e-05 |  | 44.9 |  |  |
| COCc1cc(-c2nc(-c3ccnc(N)c3)no2)ccc1-c1ccccc1C [Example 15, 4-{5-[2-(methoxymethyl)-2′-methylbiphenyl-4-yl]-1,2,4-oxadiazol-3-yl}pyridin-2-amine, hydrochloride salt] | 3.52 | 414 | 1.04e-08 |  |  | 6 |  |  |
| COCc1cc(-c2nc(-c3cnc(N)nc3)no2)ccc1-c1ccccc1C [Example 17, 5-{5-[2-(methoxymethyl)-2′-methylbiphenyl-4-yl]-1,2,4-oxadiazol-3-yl}pyrimidin-2-amine] | 152 |  |  |  |  | 152 | 2.92e-08 |  |
| COCc1cc(-c2nc(-c3cnc(N)c(C)c3)no2)ccc1-c1ccccc1C [Example 18, 5-{5-[2-(methoxymethyl)-2′-methylbiphenyl-4-yl]-1,2,4-oxadiazol-3-yl}-3-methylpyridin-2-amine, hydrochloride salt] | 4.87 |  | 4.33e-09 | 2.21e-05 |  | 49.4 | 1.52e-08 |  |
| CC1CCCCN1c1ccc(-c2nc(-c3ccc(N)nc3)no2)cc1C(F)(F)F (stereo not shown) [Example 20, 5-{5-[4-(2-methylpiperidin-1-yl)-3-(trifluoromethyl)phenyl]-1,2,4-oxadiazol-3-yl}pyridin-2-amine] | 14.7 |  | 1.03e-08 |  |  |  |  |  |
| COCc1cc(-c2nc(-c3ccc(O)nc3)no2)ccc1-c1ccccc1C [Example 21, 5-{5-[2-(methoxymethyl)-2′-methylbiphenyl-4-yl]-1,2,4-oxadiazol-3-yl}pyridin-2-ol] | 3.97 | 422 | 4.76e-08 |  |  |  |  |  |
| COCc1cc(-c2nc(-c3ccc(O)nc3)no2)ccc1N1CCCCC1C (stereo not shown) [Example 22, 5-{5-[3-(methoxymethyl)-4-(2-methylpiperidin-1-yl)phenyl]-1,2,4-oxadiazol-3-yl}pyridin-2-ol] | 5.29 | 153 | 1.3e-09 |  |  |  |  |  |
| CCC1CCCCN1c1ccc(-c2nc(-c3ccc(N)nc3)no2)cc1COC (stereo not shown) [Example 27, 5-{5-[4-(2-ethylpiperidin-1-yl)-3-(methoxymethyl)phenyl]-1,2,4-oxadiazol-3-yl}pyridin-2-amine] | 13.4 | 1660 | 5.7e-09 |  |  |  |  |  |
| COCc1cc(-c2nc(-c3ccc(NCCO)nc3)no2)ccc1-c1ccccc1C [Example 28, 2-[(5-{5-[2-(methoxymethyl)-2′-methylbiphenyl-4-yl]-1,2,4-oxadiazol-3-yl}pyridin-2-yl)amino]ethanol] | 5.25 |  | 4.54e-09 |  |  |  |  |  |
| COCc1cc(-c2nc(-c3ccc(N)nc3)no2)ccc1-c1ccccc1Cl [Example 32, 5-{5-[2′-chloro-2-(methoxymethyl)biphenyl-4-yl]-1,2,4-oxadiazol-3-yl}pyridin-2-amine] | 2.98 |  | 1.39e-09 | 9.4e-06 |  | 38.8 | 2.12e-08 |  |
| COCc1cc(-c2nc(-c3ccc(N)nc3)no2)ccc1N1CCCC1C (stereo not shown) [Example 33, 5-{5-[3-(methoxymethyl)-4-(2-methylpyrrolidin-1-yl)phenyl]-1,2,4-oxadiazol-3-yl}pyridin-2-amine] | 7.39 |  | 5.37e-08 |  |  |  |  |  |
| COCCNc1ncc(-c2noc(-c3ccc(-c4ccccc4C)c(COC)c3)n2)cc1Cl [Example 34, 3-chloro-N-(2-methoxyethyl)-5-{5-[2-(methoxymethyl)-2′-methylbiphenyl-4-yl]-1,2,4-oxadiazol-3-yl}pyridin-2-amine] | 11.8 |  | 5.26e-09 |  |  |  |  |  |
| COCc1cc(-c2nc(-c3cnc(NCCC(=O)O)c(Cl)c3)no2)ccc1-c1ccccc1C [Example 37, N-(3-chloro-5-{5-[2-(methoxymethyl)-2′-methylbiphenyl-4-yl]-1,2,4-oxadiazol-3-yl}pyridin-2-yl)-beta-alanine, hydrochloride salt] | 2.37 | 2110 | 1.07e-09 | 2.86e-06 | 1.5e-05 | 19.8 | 1.06e-08 |  |
| COCc1cc(-c2nc(-c3cnc(N)c(Cl)c3)no2)ccc1-c1ccccc1Cl [Example 47, 3-chloro-5-{5-[2′-chloro-2-(methoxymethyl)biphenyl-4-yl]-1,2,4-oxadiazol-3-yl}pyridin-2-amine] |  |  | 6.02e-09 | 2e-05 |  | 26.8 |  | 182 to 184 |
| COCc1cc(-c2nc(-c3cnc(N)c(C)c3)no2)ccc1-c1ccccc1Cl [Example 76, 5-{5-[2′-chloro-2-(methoxymethyl)biphenyl-4-yl]-1,2,4-oxadiazol-3-yl}-3-methylpyridin-2-amine] |  |  |  |  |  | 37.4 | 2.16e-08 | 143 to 145 |
| CCOc1cc(-c2nc(-c3cnc(N)c(C)c3)no2)ccc1-c1ccccc1C(F)(F)F [Example 77, 5-{5-[2-ethoxy-2′-(trifluoromethyl)biphenyl-4-yl]-1,2,4-oxadiazol-3-yl}-3-methylpyridin-2-amine] |  |  |  |  |  | 73.5 | 1.49e-08 | 163 to 165 |
| COCc1cc(-c2nc(-c3cnc(N)c(C)c3)no2)ccc1-c1ccccc1F [Example 79, 5-{5-[2′-fluoro-2-(methoxymethyl)biphenyl-4-yl]-1,2,4-oxadiazol-3-yl}-3-methylpyridin-2-amine] |  |  |  |  |  | 58.7 | 2.15e-08 | 162 to 164 |
